Source: patent US20200172911A1, “USP30 INHIBITORS AND METHODS OF USE” (Genentech, Inc., priority 2012, published 2020)

Experiments:
Assay type in all cases: cell-based, human
[1] = tested on: GFP-Parkin expressing stable HEK-293 cells; assay: HA-ubiquitin immunoprecipitation and immunoblot of MIRO and Tom20; conditions: HA-ubiquitin immunoprecipitates, CCCP 5 μM, 2 hours
Experimental: For total lysate experiments, transfected HEK-293 cells were lysed at 24 hours post-transfection in SDS sample buffer (Invitrogen) containing sample reducing agent (Invitrogen). For immunoprecipitation experiments, cells were lysed at 24 hours (overexpression experiments) or 6 days (knockdown experiments) post-transfection in TBS buffer containing 0.5% SDS, and lysates were diluted with a buffer containing 1% Triton-X-100 and protease and phosphatase inhibitors. Ubiquitinated proteins were immunoprecipated from lysates of HA-ubiquitin transfected cells with anti-HA affinity matrix beads (Roche Applied Science). Inputs and precipitates were resolved by SDS-PAGE and analyzed by immunoblotting.
For total lysate experiments, cells were lysed after 24 hours in SDS sample buffer (Invitrogen) containing sample reducing agent (Invitrogen) and boiled at 95° C. for 10 minutes. Total lysates were resolved by SDS-PAGE and analyzed by immunoblotting. For immunoprecipitation experiments, cells were treated with 5 μM MG132 and the indicated concentrations and durations of CCCP at 24 hours (overexpression experiments) or 6 days (knockdown experiments) in 0.5% SDS in Tris-Buffered Saline (10 mM TRIS, 150 mM NaCl, pH 8.0) and boiled at 70° C. for 10 minutes. […] Inputs and anti-HA immunoprecipitates were resolved by SDS-PAGE and analyzed by immunoblotting. […]

USP30 = USP30 knockdown efficiency in HEK-293 cells
Experimental: (§1) To determine Parkin substrates, HEK-293 GFP-Parkin inducible cells were treated with doxycycline for 24 hours, and then treated with 5 μM CCCP or DMSO vehicle control for 2 hours. To determine USP30 substrates, HEK-293T cells were transfected with human USP30 shRNA using Lipofectamine 2000 (Invitrogen) for 6 days, then treated as before. […] Preparation of cellular lysates and immunoprecipitation
Since Parkin and USP30 antagonistically regulate mitochondrial degradation, it was hypothesized that this E3 ligase and DUB act on some common substrates. To identify Parkin and USP30 substrates, global ubiquitination in cells was analyzed by mass spectrometry (MS) following immunoaffinity enrichment of ubiquitinated peptides from trypsin-digested extracts using the ubiquitin branch-specific (K-GG) antibodies. Global ubiquitination was analyzed and quantified by MS in HEK-293 cells in two different sets of conditions: 1) inducible Parkin overexpression, or 2) USP30 knockdown (USP30 knockdown efficiency was 85±5% (see FIG. 7C)). In each set, cells were treated with CCCP (5 μM, 2 hours) or vehicle control (DMSO).

HEK-293 cells = assay: global ubiquitination (K-GG) mass spectrometry, USP30 knockdown; conditions: CCCP 5 μM, 2 hours
Experimental: as §1
To identify Parkin substrates, HEK 293T cells stably expressing inducible GFP-Parkin (human) were induced using doxycycline (1 μg/mL) for 24 hours, then treated with 5 μM CCCP or DMSO vehicle control for 2 hours. To determine USP30 substrates, HEK 293T cells were transfected with human USP30 shRNA using Lipofectamine 2000 (Invitrogen) for 6 days, then treated as above.
Immunoaffinity isolation and mass spectrometry methods were used to enrich and identify K-GG peptides from digested protein lysates as previously described (Xu et al., Nat. Biotech., 28: 868-873 (2010); Kim et al., Mol. Cell, 44: 325-340 (2011)). Cell lysates were prepared in lysis buffer (8M urea 20 mM HEPES pH 8.0 with 1 mM sodium orthovanadate, 2.5 mM sodium pyrophosphate, 1 mM ß-glycerophosphate) by brief sonication on ice. Protein samples (60 mg) were reduced at 60° C. for 20 min in 4.1 mM DTT, cooled 10 min on ice, and alkylated with 9.1 mM iodoacetamide for 15 min at room temperature in the dark. […]

[2] = tested on: HeLa cells cotransfected with GFP-Parkin; assay: mitochondrial degradation assay / DUB cDNA overexpression screen (Tom20 staining); conditions: CCCP 20 μM, 24 hours
Experimental: To identify regulators of mitophagy, individual cDNAs from a FLAG-tagged DUB library were cotransfected into HeLa cells with GFP-Parkin using Lipofectamine 2000 (Invitrogen) (1:3 DUB-FLAG: GFP-Parkin cDNA ratio). After 24 hours of expression, cells were treated with […] CCCP for 24 hours, and fixed and stained using anti-Tom20 (Santa Cruz Biotechnology), anti-GFP (Aves Labs) and anti-FLAG (Sigma) primary antibodies. Following staining with secondary antibodies, images of random fields were acquired with a Leica SP5 Laser Scanning Confocal Microscope using a 40×/1.25 oil-objective (0.34 μm/pixel resolution, 1 μm confocal z-step size). Percent of GFP-Parkin and FLAG-DUB cotransfected cells containing Tom20 staining was scored blindly.
To identify DUBs that regulate mitochondria clearance, a FLAG-tagged human DUB cDNA library (97 DUBs) was screened in an established mitochondrial degradation assay (Narendra et al., J. Cell Biol., 183: 795-803 (2008)). In this assay, mitochondria depolarization induced by protonophore carbonyl cyanide 3-chlorophenylhydrazone (CCCP, 20 μM, 24 hours) results in marked loss of mitochondria in cultured cells overexpressing Parkin (as measured by staining for mitochondria outer membrane protein marker Tom20). […] Individual FLAG-tagged DUB cDNAs were cotransfected with GFP-Parkin, and their effects on CCCP-induced mitochondrial (Tom20) clearance were measured. […]

[3] = tested on: GFP-Parkin stable cell lines (HEK-293); assay: immunoblot of mitochondrial protein levels during CCCP treatment; conditions: CCCP 5 μM, t=6 h, p<0.01
Experimental: For total lysate experiments, cells were lysed after 24 hours in SDS sample buffer (Invitrogen) containing sample reducing agent (Invitrogen) and boiled at 95° C. for 10 minutes. Total lysates were resolved by SDS-PAGE and analyzed by immunoblotting. For immunoprecipitation experiments, cells were treated with 5 μM MG132 and the indicated concentrations and durations of CCCP at 24 hours (overexpression experiments) or 6 days (knockdown experiments) in 0.5% SDS in Tris-Buffered Saline (10 mM TRIS, 150 mM NaCl, pH 8.0) and boiled at 70° C. for 10 minutes. […] Inputs and anti-HA immunoprecipitates were resolved by SDS-PAGE and analyzed by immunoblotting.
Beyond ubiquitination, does USP30 regulate protein turnover in addition to ubiquitination? […] In contrast to the outer membrane proteins, mitochondrial matrix protein HSP60 and inner membrane protein TIMM8A were unchanged by CCCP within this time frame. Overexpression of USP30 in GFP-Parkin stable cells greatly attenuated or abolished the CCCP-induced depletion of MIRO and Tom20 (FIG. 6G, H). Stabilization by USP30 overexpression appeared to be relatively specific for MIRO and Tom20, since CCCP-induced degradation of other mitochondria membrane proteins (MFN-1, TOM70, VDAC) was unaffected (FIG. 6G, H).

Row | Molecule | increase in level of ubiquitinated MIRO [1] | USP30 knockdown efficiency (USP30) | USP30 shRNA+CCCP/CCCP ubiquitination ratio for Tom20 (HEK-293 cells; p=0.005) | USP30 shRNA+CCCP/CCCP ubiquitination ratio for MIRO (HEK-293 cells; p=0.019) | Parkin-transfected cells lacking Tom20 staining [2] | decrease in Tom20 protein level [3]
1 | CCAGAGTCCTGTTCGATTT ((CCAGAGTCCTGTTCGATTT; as printed in the source, key not given here) [human USP30 shRNA] | ~2.5 fold | 85±5% | 3.52 | 2.95 |  | 
2 | N#CC(C#N)=NNc1cccc(Cl)c1 [CCCP, carbonyl cyanide 3-chlorophenylhydrazone] |  |  |  |  | > 80% | 10+/−1%
